Values quoted from earlier work as cited in patent publication US20210346453A1, “COMPOSITIONS AND METHODS FOR TREATMENT OF COVID-19” (Cognitive Clarity Inc., priority 2020, published 2021).

Assays:
[1] = system: inflammation in brain (astrocytosis and microgliosis); details: plaque-producing transgenic mice, within 3 months of treatment
[2] = system: brain plaques and tangles; details: aging brain
COVID-19 = details: compared to placebo

Compound | reduction of inflammation in brain (astrocytosis and microgliosis) [1] | brain plaques and tangles [2] | risk of being hospitalized or visiting the Emergency Room within 28 days after treatment (COVID-19)
Oc1cc(O)c2c(c1)O[C@H](c1ccc(O)c(O)c1)[C@H](O)[C@H]2c1c(O)cc(O)c2c1O[C@H](c1ccc(O)c(O)c1)[C@H](O)C2 [Proanthocyanidin B2, epicatechin-4β-8-epicatechin] | 69%-80.3% | inhibit and reduce | –
Oc1ccc([C@H]2Oc3cc(O)cc(O)c3[C@H](c3c(O)cc(O)c4c3O[C@H](c3ccc(O)c(O)c3)[C@H](O)C4)[C@H]2O)cc1 [epiafzelechin-4β-8-epicatechin] | – | inhibit and reduce | –
Oc1cc(O)c2c(c1)O[C@H](c1ccc(O)c(O)c1)[C@@H](O)[C@@H]2c1c(O)cc(O)c2c1O[C@H](c1ccc(O)c(O)c1)[C@H](O)C2 [proanthocyanidin B4, catechin-4-α-8-epicatechin] | – | inhibit and reduce | –
Oc1cc(O)c2c(c1)O[C@H](c1ccc(O)c(O)c1)[C@H](O)[C@H]2c1c(O)cc(O)c2c1O[C@H](c1ccc(O)c(O)c1)[C@H](O)[C@H]2c1c(O)cc(O)c2c1O[C@H](c1ccc(O)c(O)c1)[C@H](O)C2 [proanthocyanidin C1, epicatechin-4β-8-epicatechin-4β-8-epicatechin] | – | inhibit and reduce | –
Bamlanivimab: monoclonal antibody treatment made by Eli Lilly | – | – | significantly reduce
